Reference: patent US6589988B1, “Pharmaceutical composition with antitumor activity on the basis of carboplatin” (Pliva-Lachema, a.s., priority 1998, dated 2003)

Tests used:
Assay type in all cases: physicochemical
[1] = Decomposition rate of carboplatin in aqueous solution in dependence on the concentration of 1,1-cyclobutanedicarboxylic acid; details: for decomposition rate of carboplatin (r): carboplatin 10.0 mg·ml^−1
Description: The rate of hydrolysis of carboplatin to a monoaquacomplex of the formula (1) has been presumed to be of the first order in relation to carboplatin concentration and independent to water concentration: [formula]
Dependences on concentration according to equations /1-2/ and /1-3/ were evaluated by linear regression and the rate constant and/or the reaction rate of the carboplatin decomposition have been calculated.
Study of the decomposition rate of carboplatin in dependence on the concentration of 1,1-cyclobutanedicarboxylic acid.
Mean starting concentration of carboplatin was 10.0 mg·ml^−1. Starting concentrations of 1,1-cyclobutanedicarboxylic acid were 0.017, 0.129, 1.189 and 14.804 mg·ml^−1. The temperature and relative humidity during storage was 25° C./60% and 35° C./60%. The vials with samples were stored stopper upright.
The decrease of carboplatin content was calculated as a difference of carboplatin content between a reference and measured sample. The concentration data were evaluated according to equation /1-2/, whereby, due to a good linear relation, the data were evaluated by linear regression.

[2] = Decomposition rates of carboplatin calculated from equation /1-7/ (Arrhenius evaluation); details: for calculated decomposition rate of carboplatin (r) / rate increase: 25° C.; for calculated decomposition rate of carboplatin (r): from equation /1-7/
Description: After evaluation of Arrhenius equation, the activation energy EA was calculated:
For the reference temperature of 35° C., at which the best determination coefficient has been obtained (R^2=0.99), the following dependence of the decomposition rate of carboplatin on the concentration of the present 1,1-cyclobutanedicarboxylic acid and on the temperature may be obtained from the equations /1-5/ and /1-6/: [formula]
wherein r is expressed in mol·m^−3·s^−1 and CCBDCA is expressed in mol·m^−3.
Based on the equation /1-7/, it is possible to calculate decomposition rates of carboplatin at the temperature of 25° C. and for different concentrations of 1,1-cyclobutanedicarboxylic acid: […]

[3] = Decomposition rate of carboplatin in aqueous solution in dependence on the concentration of 1,1-cyclobutanedicarboxylic acid; details: 0.1 M phosphate buffer at 37° C. versus 1.4·10^−4M CBDCA-buffer at 40° C.

SMILES: N.N.O=C([O-])C1(C(=O)[O-])CCC1.[Pt+2] [carboplatin, cis-diammin-1,1-cyclobutanedicarboxylatoplatinum(II) complex]
- increase of the decomposition rate of carboplatin ([1]; enhancement of temperature of 10° C.): approximately tenfold
- decomposition rate of carboplatin (r) ([1]; storage 25° C./60% RH, CBDCA 0.017 mg·ml^−1): 4.0 · 10^−9 mol·m^−3·s^−1
- decomposition rate of carboplatin (r) ([1]; storage 25° C./60% RH, CBDCA 0.129 mg·ml^−1): 4.0 · 10^−9 mol·m^−3·s^−1
- decomposition rate of carboplatin (r) ([1]; storage 25° C./60% RH, CBDCA 1.189 mg·ml^−1): 9.4 · 10^−9 mol·m^−3·s^−1
- decomposition rate of carboplatin (r) ([1]; storage 25° C./60% RH, CBDCA 14.804 mg·ml^−1): 2.2 · 10^−8 mol·m^−3·s^−1
- decomposition rate of carboplatin (r) ([1]; storage 35° C./60% RH, CBDCA 0.017 mg·ml^−1): 4.9 · 10^−8 mol·m^−3·s^−1
- decomposition rate of carboplatin (r) ([1]; storage 35° C./60% RH, CBDCA 0.129 mg·ml^−1): 5.1 · 10^−8 mol·m^−3·s^−1
- decomposition rate of carboplatin (r) ([1]; storage 35° C./60% RH, CBDCA 1.189 mg·ml^−1): 7.3 · 10^−8 mol·m^−3·s^−1
- decomposition rate of carboplatin (r) ([1]; storage 35° C./60% RH, CBDCA 14.804 mg·ml^−1): 1.7 · 10^−7 mol·m^−3·s^−1
- calculated decomposition rate of carboplatin (r) ([2]; CBDCA 0.005 mg/ml): 4.48·10^−9 mol·m^−3·s^−1
- calculated decomposition rate of carboplatin (r) ([2]; CBDCA 0.150 mg/ml (as in Ribocarbol L)): 4.58·10^−9 mol·m^−3·s^−1
- rate increase ([2]; CBDCA 0.150 mg/ml versus 0.005 mg/ml): 2.2%
- calculated decomposition rate of carboplatin (r) ([2]; CBDCA 0.250 mg/ml (lower limit of EP 642 792)): 4.65·10^−9 mol·m^−3·s^−1
- rate increase ([2]; CBDCA 0.250 mg/ml versus 0.005 mg/ml): 4%
- activation energy EA of carboplatin decomposition ([2]; Arrhenius equation, from rates at 25 and 35° C.): 190 000 J·mol^−1
- rate constant k, ratio [3]: approximately 200 times
